Measured values taken from ChEMBL document CHEMBL1201862, “PubChem BioAssay data set” (2004).
Active and inactive are the calls of the source.

Tests used:
HEK293 [1] = assay: cells; details: Homo sapiens
HEK293 [2] = assay: cells; details: Homo sapiens; remark: listed apart in the source
Mucolipin-3 = target: T1, Mucolipin-3 (Homo sapiens, UniProt Q8TDD5); assay: Dose response cell-based high-throughput screening assay for agonists of the transient receptor potential channel ML3 (TRPML3). [Related pubchem assays: 1526, 1424, 1448 ]; assay type: functional
T1 sequence (Q8TDD5 whole entry): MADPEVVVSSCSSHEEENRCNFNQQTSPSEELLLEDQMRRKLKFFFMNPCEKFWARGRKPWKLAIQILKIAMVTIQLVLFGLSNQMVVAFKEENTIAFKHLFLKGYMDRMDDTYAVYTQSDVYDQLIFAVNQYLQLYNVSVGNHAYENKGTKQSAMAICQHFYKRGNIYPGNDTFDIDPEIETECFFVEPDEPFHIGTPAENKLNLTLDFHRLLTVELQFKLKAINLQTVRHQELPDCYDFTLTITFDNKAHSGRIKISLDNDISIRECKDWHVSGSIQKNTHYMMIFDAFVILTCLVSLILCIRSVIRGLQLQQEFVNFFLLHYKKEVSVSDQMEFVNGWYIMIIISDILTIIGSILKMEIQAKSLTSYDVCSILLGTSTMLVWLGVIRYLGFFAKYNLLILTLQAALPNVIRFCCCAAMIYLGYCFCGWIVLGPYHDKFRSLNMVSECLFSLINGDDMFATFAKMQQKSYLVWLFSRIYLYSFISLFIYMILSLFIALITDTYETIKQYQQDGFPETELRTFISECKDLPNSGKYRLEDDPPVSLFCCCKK

Ion channel NompC = Ion channel NompC (Danio rerio, UniProt Q7T1G6); assay: Fluorescence counterscreen assay for TRPML3 agonists: dose response cell-based high-throughput screening assay to identify agonists of the transient receptor potential channel N1 (TRPN1). [Related pubchem assays: 1526, 1424, 1448 ]; assay type: functional
[3] = target: T2, RNA-binding protein pos-1 (Caenorhabditis elegans, UniProt G5EF15); assay: inhibitors of POS-1/mex-3 RNA binding, dose response, biochemical, fluorescence polarization (AID 1964);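 also: purified POS-1 fused to maltose binding protein made in E. coli; potency of compounds blocking POS-1 binding to fluorescent RNA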
T2 sequence (G5EF15 whole entry): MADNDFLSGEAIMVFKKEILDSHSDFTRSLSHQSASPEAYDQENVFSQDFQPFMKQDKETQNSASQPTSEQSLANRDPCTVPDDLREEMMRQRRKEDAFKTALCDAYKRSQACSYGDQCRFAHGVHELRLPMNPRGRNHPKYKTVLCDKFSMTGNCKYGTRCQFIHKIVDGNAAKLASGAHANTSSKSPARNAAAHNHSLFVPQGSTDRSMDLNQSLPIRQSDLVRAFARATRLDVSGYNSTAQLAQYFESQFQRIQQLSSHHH

[4] = target: T3, Zinc finger protein mex-5 (Caenorhabditis elegans, UniProt Q9XUB2); assay: MEX-5/TCR-2 RNA interaction inhibitors, dose response, biochemical, C. elegans, fluorescence polarization (AID 1960)
T3 sequence (Q9XUB2 whole entry): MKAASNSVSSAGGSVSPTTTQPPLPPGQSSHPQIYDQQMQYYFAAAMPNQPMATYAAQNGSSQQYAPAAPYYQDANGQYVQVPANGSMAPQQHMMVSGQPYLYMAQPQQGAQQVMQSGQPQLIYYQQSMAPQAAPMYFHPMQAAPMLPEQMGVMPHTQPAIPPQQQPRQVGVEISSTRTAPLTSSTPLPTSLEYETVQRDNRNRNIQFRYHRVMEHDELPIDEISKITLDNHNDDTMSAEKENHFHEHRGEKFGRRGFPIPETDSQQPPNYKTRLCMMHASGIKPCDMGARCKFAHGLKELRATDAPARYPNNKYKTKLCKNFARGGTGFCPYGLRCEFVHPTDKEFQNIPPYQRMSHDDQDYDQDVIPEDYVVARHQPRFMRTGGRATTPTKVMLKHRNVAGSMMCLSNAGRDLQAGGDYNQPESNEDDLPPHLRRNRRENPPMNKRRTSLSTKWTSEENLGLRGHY

Keap1/Nrf2 = Keap1/Nrf2 (Homo sapiens, UniProt Q14145); assay: Keap1-Nrf2 protein-protein interaction inhibitors, dose response, biochemical, fluorescence polarization, cherry-picked samples (AID 588683)
Genome polyprotein = Genome polyprotein (dengue virus type 2, UniProt P29990); assay: Dengue-2 NS5 methyltransferase inhibitors, primary screen, biochemical, confirmation dose response (AID 588689); assay type: functional
[5] = HEp-2 cell cytotoxicity, dose response, cytotoxicity control for RSV inhibitor project, HTS (AID 2410); assay type: functional; details: human respiratory syncytial virus
[6] = target: T4, Heat shock factor protein 1 (Mus musculus, UniProt P38532); assay: inhibition of MG132-induced HSE-luciferase signal, confirmation, cell-based, NIH3T3, luminescence, dose retest (AID 2382); assay type: functional;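 also: NIH3T3 fibroblasts with HSF1-driven luciferase reporter stressed by proteasome inhibitor MG132; luminescence from HSF1-driven luciferase expression after 8 hours of MG132 stress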
T4 sequence (P38532 whole entry): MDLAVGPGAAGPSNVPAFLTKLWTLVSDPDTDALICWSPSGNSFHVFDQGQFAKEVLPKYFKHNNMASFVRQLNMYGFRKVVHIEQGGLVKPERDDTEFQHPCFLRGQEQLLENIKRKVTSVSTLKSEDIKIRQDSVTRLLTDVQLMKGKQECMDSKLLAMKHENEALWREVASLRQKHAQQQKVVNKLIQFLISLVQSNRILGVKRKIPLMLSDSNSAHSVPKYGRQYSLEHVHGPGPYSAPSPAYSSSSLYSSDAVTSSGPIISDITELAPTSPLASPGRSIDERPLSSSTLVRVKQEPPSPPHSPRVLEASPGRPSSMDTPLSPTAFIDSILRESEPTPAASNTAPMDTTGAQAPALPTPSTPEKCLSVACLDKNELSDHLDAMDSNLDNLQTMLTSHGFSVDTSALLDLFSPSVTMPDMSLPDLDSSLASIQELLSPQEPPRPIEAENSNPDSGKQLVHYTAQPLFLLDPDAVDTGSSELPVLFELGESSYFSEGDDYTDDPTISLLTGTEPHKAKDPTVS

[7] = target: Delta-type opioid receptor (Homo sapiens, UniProt P41143); assay: Counterscreen for agonists of heterodimerization of the mu 1 (OPRM1) and delta 1 (OPRD1) opioid receptors: Luminescence-based cell-based high throughput dose response assay to identify agonists of OPRD1 homodimerization. [Related pubchem assays (depositor defined):AID504326, AID504355, AID504692, AID504904, AID504905]; assay type: functional
Mu-type opioid receptor = Mu-type opioid receptor (Homo sapiens, UniProt P35372); assay: Counterscreen for agonists of heterodimerization of the mu 1 (OPRM1) and delta 1 (OPRD1) opioid receptors: Luminescence-based cell-based high throughput dose response assay to identify agonists of OPRM1 homodimerization.; assay type: functional;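 also: U2OS cells expressing OPRM1 and beta-arrestin as split beta-galactosidase partners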
[8] = target: 5-hydroxytryptamine receptor 5A (Homo sapiens, UniProt P47898); assay: Counterscreen for agonists of OPRM1-OPRD1 heterodimerization: luminescence-based cell-based high throughput dose response assay to identify agonists of 5-hydroxytryptamine (serotonin) 5A receptor (HTR5A). [Related pubchem assays (depositor defined):AID504326, AID504355, AID504692, AID504904, AID504905]; assay type: functional
Cytochrome P450 1A2 = target: T5, Cytochrome P450 1A2 (Homo sapiens, UniProt P05177);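 also: PubChem cytochrome P450 panel assay, CYP1A2 panel member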
T5 sequence (P05177 whole entry): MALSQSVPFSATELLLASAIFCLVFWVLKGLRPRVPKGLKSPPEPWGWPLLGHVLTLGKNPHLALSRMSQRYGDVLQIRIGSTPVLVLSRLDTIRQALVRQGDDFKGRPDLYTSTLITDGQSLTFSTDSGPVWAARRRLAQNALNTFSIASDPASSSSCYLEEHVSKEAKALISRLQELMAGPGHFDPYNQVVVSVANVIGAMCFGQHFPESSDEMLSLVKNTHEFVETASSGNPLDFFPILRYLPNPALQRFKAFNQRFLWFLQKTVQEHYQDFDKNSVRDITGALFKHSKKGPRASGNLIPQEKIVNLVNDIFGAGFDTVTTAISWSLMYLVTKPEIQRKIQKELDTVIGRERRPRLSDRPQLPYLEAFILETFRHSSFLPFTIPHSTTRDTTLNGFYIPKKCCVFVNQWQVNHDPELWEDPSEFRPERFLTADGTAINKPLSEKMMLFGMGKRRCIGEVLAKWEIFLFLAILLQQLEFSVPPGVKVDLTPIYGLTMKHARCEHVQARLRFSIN

Escherichia coli = assay: microbe, parasite or virus in culture
[9] = target: T6, Ubiquitin-conjugating enzyme E2 N (Homo sapiens, UniProt P61088); assay type: functional;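 also: Dose-response confirmation in a TR-FRET assay detecting UBC13-driven polyubiquitin chain formation, inhibition measured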
T6 sequence (P61088 whole entry): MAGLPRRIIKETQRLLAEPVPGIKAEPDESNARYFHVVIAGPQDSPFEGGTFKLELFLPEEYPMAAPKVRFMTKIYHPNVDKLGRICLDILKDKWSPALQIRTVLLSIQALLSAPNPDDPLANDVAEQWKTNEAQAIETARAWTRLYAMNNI

Vero = assay: cells; assay type: functional; details: Chlorocebus sabaeus
[10] = target: Dual specificity tyrosine-phosphorylation-regulated kinase 1A (Rattus norvegicus, UniProt Q63470); assay type: biochemical, Homo sapiens
[11] = NIH-3T3 fibroblast cytotoxicity, dose response, cytotoxicity control, cell-based, fluorescence, Alamar Blue, secondary assay (AID 2327); assay type: functional;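 also: NIH-3T3 mouse fibroblasts cultured with fluconazole at 8 µg/mL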
[12] = C. albicans growth with fluconazole, confirmation, fluorescence, retest (AID 2467); assay type: functional, cell-based
[13] = microbe, parasite or virus in culture; assay type: functional; details: Mycobacterium tuberculosis
[14] = target: T7, Short transient receptor potential channel 4 (Mus musculus, UniProt Q9QUQ5); assay: mouse TRPC4 channel activators, dose response, cell-based, HEK293 TRPC4/mu-opioid, Fluo-4 calcium (AID 434937); assay type: functional
T7 sequence (Q9QUQ5 whole entry): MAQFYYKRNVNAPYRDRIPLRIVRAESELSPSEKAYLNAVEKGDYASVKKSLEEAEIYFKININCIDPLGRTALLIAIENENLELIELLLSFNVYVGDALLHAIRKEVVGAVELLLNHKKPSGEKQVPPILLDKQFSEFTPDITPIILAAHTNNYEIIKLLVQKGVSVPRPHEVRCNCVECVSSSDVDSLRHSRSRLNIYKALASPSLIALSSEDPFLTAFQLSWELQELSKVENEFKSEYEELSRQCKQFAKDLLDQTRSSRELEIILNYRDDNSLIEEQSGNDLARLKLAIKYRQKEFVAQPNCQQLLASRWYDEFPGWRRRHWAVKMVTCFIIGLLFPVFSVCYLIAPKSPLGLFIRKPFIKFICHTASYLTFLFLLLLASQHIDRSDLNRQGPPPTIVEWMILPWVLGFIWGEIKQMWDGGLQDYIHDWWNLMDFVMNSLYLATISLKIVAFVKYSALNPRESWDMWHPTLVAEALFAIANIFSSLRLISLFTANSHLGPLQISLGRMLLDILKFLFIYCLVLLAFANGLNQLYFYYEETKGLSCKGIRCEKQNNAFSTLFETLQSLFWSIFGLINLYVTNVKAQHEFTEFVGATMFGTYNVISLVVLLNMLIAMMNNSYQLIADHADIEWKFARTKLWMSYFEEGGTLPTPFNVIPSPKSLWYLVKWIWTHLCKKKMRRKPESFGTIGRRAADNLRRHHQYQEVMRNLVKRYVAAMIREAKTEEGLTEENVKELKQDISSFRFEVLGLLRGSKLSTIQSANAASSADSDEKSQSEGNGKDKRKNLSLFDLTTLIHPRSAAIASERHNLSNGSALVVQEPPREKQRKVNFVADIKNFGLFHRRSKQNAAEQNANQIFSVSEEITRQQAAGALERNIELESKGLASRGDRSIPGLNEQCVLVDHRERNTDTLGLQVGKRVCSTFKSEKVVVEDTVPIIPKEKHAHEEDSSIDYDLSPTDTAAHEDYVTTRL

Delta-type opioid receptor, sequence (P41143 whole entry): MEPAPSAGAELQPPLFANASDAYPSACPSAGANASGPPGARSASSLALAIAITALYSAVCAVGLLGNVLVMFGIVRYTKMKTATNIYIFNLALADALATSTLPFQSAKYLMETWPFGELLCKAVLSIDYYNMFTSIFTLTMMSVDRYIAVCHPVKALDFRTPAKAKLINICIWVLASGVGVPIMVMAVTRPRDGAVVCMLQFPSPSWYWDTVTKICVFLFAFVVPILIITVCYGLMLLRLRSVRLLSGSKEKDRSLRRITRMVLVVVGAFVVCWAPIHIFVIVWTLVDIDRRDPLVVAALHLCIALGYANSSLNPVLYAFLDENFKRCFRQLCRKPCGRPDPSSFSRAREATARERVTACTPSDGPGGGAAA
5-hydroxytryptamine receptor 5A, sequence (P47898 whole entry): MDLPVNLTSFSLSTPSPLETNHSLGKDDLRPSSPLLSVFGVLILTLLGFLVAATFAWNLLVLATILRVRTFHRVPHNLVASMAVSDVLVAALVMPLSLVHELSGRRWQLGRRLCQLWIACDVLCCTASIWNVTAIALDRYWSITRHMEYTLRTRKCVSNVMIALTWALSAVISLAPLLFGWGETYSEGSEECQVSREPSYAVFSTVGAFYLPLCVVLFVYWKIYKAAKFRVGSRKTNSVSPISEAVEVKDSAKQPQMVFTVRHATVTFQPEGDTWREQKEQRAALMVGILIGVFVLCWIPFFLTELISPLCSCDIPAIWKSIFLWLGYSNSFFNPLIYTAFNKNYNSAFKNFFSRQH
Mu-type opioid receptor, sequence (P35372 whole entry): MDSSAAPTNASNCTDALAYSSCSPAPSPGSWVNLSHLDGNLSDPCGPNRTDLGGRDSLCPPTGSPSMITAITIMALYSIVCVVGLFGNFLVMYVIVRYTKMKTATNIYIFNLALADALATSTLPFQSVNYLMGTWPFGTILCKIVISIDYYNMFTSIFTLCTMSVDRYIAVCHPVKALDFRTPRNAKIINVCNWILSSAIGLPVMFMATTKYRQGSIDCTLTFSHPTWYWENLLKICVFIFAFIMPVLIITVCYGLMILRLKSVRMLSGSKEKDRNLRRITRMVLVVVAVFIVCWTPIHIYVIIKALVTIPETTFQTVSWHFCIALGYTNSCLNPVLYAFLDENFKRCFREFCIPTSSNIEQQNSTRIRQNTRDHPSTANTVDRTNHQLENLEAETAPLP
Keap1/Nrf2, sequence (Q16236 whole entry): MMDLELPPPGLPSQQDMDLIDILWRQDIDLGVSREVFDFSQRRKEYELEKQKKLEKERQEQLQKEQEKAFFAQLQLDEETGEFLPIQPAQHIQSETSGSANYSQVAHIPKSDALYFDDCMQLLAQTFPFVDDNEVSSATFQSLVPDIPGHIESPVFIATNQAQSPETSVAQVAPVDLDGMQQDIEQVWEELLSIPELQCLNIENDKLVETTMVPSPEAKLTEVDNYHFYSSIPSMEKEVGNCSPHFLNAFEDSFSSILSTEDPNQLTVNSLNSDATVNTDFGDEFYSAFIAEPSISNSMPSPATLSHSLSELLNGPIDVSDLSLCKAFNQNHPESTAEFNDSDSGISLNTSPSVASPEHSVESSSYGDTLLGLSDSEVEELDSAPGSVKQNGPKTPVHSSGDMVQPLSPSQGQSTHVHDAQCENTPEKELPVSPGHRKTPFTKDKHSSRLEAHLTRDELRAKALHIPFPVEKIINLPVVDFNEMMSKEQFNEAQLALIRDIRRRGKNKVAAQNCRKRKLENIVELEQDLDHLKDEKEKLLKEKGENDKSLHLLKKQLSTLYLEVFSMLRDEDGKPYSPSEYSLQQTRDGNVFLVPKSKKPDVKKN
Keap1/Nrf2, sequence (Q14145 whole entry): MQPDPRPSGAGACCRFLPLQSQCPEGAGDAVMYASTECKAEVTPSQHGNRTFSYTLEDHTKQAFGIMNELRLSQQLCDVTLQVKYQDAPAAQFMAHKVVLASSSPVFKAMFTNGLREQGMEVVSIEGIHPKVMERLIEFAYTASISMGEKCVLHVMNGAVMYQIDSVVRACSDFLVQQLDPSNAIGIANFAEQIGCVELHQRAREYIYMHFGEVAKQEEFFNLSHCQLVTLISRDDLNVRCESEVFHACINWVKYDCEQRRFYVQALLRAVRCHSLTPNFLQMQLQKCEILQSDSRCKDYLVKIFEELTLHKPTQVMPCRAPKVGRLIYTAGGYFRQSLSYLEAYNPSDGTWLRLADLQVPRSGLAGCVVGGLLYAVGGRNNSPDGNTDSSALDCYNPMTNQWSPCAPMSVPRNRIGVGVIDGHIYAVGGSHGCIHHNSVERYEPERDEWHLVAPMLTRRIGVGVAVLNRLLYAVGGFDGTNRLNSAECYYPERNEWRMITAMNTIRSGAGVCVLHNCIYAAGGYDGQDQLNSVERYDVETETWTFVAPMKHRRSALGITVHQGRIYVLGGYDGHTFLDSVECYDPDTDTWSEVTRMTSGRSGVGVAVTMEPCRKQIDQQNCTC
Ion channel NompC, sequence (Q7T1G6 whole entry, the tested form may be a part): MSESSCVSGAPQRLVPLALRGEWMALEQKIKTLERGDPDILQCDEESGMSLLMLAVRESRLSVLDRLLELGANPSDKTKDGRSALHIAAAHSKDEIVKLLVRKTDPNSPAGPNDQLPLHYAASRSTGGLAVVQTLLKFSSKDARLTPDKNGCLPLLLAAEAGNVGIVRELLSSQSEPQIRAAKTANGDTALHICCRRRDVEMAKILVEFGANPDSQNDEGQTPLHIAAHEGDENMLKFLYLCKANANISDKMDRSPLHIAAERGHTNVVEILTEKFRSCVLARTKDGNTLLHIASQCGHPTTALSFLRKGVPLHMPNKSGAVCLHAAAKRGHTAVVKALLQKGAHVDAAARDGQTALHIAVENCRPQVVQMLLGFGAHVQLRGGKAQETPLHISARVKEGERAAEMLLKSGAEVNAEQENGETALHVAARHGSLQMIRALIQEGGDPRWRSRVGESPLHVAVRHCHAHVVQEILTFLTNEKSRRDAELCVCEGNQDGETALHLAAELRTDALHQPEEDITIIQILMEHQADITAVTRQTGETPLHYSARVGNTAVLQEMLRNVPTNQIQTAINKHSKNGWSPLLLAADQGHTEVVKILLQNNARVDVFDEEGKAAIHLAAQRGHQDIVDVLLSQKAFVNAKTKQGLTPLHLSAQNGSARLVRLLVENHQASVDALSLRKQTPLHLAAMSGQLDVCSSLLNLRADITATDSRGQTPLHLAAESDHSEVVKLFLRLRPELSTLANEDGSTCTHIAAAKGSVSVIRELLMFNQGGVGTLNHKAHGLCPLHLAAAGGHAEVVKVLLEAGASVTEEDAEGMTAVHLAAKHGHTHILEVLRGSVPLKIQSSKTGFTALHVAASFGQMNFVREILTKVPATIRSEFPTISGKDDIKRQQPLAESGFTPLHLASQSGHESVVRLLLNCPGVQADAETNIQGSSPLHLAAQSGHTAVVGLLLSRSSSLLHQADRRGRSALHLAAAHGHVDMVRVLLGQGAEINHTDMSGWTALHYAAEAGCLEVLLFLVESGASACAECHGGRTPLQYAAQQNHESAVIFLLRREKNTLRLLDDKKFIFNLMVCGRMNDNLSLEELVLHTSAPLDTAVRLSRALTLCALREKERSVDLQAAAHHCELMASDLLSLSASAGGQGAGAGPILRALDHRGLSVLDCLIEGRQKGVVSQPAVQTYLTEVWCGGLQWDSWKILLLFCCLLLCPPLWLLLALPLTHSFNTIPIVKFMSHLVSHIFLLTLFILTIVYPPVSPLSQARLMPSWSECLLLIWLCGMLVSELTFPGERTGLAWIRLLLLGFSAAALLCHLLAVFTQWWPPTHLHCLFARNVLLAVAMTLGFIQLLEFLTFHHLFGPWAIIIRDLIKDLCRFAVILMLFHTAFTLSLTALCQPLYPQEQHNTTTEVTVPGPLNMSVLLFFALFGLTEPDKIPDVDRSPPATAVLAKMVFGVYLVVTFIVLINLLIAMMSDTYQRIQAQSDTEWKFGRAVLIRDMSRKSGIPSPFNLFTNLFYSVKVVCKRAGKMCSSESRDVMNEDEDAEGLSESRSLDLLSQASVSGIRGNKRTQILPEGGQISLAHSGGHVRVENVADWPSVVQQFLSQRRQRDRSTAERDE
Genome polyprotein, sequence (P29990 2492-3391 limits assumed): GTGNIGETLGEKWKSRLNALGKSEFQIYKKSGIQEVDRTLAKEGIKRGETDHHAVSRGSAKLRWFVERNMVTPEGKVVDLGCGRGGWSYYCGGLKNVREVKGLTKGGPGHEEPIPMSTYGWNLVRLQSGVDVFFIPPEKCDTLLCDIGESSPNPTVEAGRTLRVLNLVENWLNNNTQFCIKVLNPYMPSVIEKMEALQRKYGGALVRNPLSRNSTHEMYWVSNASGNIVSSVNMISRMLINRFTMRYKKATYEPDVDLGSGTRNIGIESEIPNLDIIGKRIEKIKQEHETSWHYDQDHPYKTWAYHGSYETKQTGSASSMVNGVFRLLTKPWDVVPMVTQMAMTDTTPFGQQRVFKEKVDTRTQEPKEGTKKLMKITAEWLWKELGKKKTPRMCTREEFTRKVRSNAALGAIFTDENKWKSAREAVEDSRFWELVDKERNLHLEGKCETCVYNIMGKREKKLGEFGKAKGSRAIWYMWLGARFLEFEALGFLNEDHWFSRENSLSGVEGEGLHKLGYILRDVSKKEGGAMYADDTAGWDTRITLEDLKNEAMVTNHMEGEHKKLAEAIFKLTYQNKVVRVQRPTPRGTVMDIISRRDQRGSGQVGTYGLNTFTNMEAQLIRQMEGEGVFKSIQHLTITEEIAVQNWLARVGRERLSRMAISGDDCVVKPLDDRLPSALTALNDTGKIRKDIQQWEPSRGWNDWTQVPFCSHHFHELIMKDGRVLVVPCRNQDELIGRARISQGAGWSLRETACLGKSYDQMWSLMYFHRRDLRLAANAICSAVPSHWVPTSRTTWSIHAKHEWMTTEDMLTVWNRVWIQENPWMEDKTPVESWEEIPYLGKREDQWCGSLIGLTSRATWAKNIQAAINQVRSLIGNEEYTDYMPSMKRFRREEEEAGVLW

Cc1cccc(C2CC(c3ccccc3)Nc3ncnn32)c1 (configuration not stated)
EC50 (HEK293 [1]): > 59.6 µM (inactive)
EC50 (HEK293 [2]): > 59.6 µM (inactive)

COc1ccc(C(C)(C)C)cc1NC(=O)c1cc(S(=O)(=O)N(C)C)ccc1N1CCCC1
EC50 (Mucolipin-3): > 29.9 µM (not active)
EC50 (Ion channel NompC): > 29.9 µM (not active)
EC50 (HEK293 [1]): > 59.6 µM (inactive)
EC50 (HEK293 [2]): > 59.6 µM (inactive)

Cc1c(N)cc(N)cc1C(=O)O
EC50 [3]: > 300 µM (not active)
EC50 [4]: 27.7 µM (active)
AC50 (Keap1/Nrf2): > 52 µM (inactive)
IC50 (Genome polyprotein): > 100 µM (active)

CC(C)c1ccc(NC(=O)N(CCc2nc3ccccc3[nH]2)C2CCCC2)cc1
CC50 [5]: 35.4 µM (active)
EC50 [6]: > 195 µM (not active)
EC50 [7]: > 92.4 µM (inactive)
EC50 (Mu-type opioid receptor): > 92.4 µM (inactive)
EC50 [8]: > 92.4 µM (inactive)
AC50 (Cytochrome P450 1A2): 11.2 µM (inconclusive)

COc1cc(NC(=O)C2CC(=O)NC3=C2C(=O)CC(C)(C)C3)c(OC)cc1Cl (configuration not stated)
AC50 (Escherichia coli): 24.1 µM (active)

O=C(Cn1ccc(C(F)(F)F)n1)Nc1ccc(S(=O)(=O)NCc2ccco2)cc1
AC50 (Escherichia coli): 38.6 µM (active)

Cc1cccc(Nc2cc(C)c3c(O)cccc3n2)c1C
IC50 [9]: > 20 µM (inactive)
CC50 (Vero): > 25 µM (active)
AC50 [10]: 1.13 µM (active)

Cn1c(-c2c(N)n(CCc3ccccc3)c3nc4ccccc4nc23)nc2ccccc21
EC50 [11]: > 160 µM (inactive)
EC50 [12]: > 38 µM (not active)
CC50 [13]: > 40 µM (active)
EC50 [7]: > 92.5 µM (inactive)
EC50 (Mu-type opioid receptor): 24.8 µM (inactive)
EC50 [8]: > 92.5 µM (inactive)

CN(C)C(CNC(=O)Cc1ccc(Br)cc1)c1ccccc1 (configuration not stated)
EC50 [14]: 0.105 µM (active)
EC50 [7]: 36.1 µM (inactive)
EC50 (Mu-type opioid receptor): > 92.5 µM (inactive)
EC50 [8]: > 92.5 µM (inactive)

COc1ccc(S(=O)(=O)N2CCC(C(N)=O)CC2)cc1
AC50 (Escherichia coli): 38.3 µM (active)
